Data on 4 molecules can be found in ChEMBL document CHEMBL1201862, “PubChem BioAssay data set” (2004).

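Assay format: 96-well plates, 48-hour exposure. GI50 is the concentration that inhibits growth by half.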 Active and inactive are the calls of the source. No stated cut-off is given here; in the data, active = GI50 up to about 1.1 µM and inactive = higher.

Among the test systems are ACHN; SK-MEL-2; NCI-H226; CAKI-1; SN12C; SNB-75; HCT-116; NCI-H522; SW-620; CCRF-CEM; SK-MEL-5; IGROV-1; A498; OVCAR-8; M14; LOX IMVI; RXF 393; SF-295.
Holding throughout (experiment): NCI tumour cell line growth inhibition, 48 h

Take `CC(=O)n1c2c(c(=O)n1-c1ccccc1)[S+]([O-])CCC2` (configuration not stated): the GI50 in the experiment with ACHN is 46.8 µM (inactive); in the experiment on SK-MEL-2, > 84.7 µM (inactive); in the experiment with NCI-H226, > 100 µM (inactive); in the experiment with CAKI-1, 55.5 µM (inactive); in the experiment on SN12C it was > 91.4 µM (inactive); with SNB-75, 51.4 µM (inactive). Also, the GI50 is 44.1 µM (inactive) in the experiment on HCT-116; 5.65 µM (inactive) with NCI-H522; 33.3 µM (inactive) in the experiment on SW-620; 7.5 µM (inactive) with CCRF-CEM; 62.4 µM (inactive) in the experiment on SK-MEL-5; 99.1 µM (inactive) in the experiment with IGROV-1. Also, the GI50 with A498 is > 100 µM (inactive); with OVCAR-8 it was > 100 µM (inactive); in the experiment with M14, 49.7 µM (inactive); with LOX IMVI, > 58.3 µM (inactive); with RXF 393, 15.6 µM (inactive).

In the case of `C=C1C(=O)C23[C@H](O)C1CC[C@H]2[C@]12COC3(O)[C@@H](O)[C@@H]1C(C)(C)CC[C@@H]2O`, the GI50 with ACHN is 16.1 µM (inactive); in the experiment with SK-MEL-2 it was 2.28 µM (inactive); in the experiment on CAKI-1 it was 1.98 µM (inactive); in the experiment with SN12C, 20.1 µM (inactive); in the experiment with SNB-75 it was 20.4 µM (inactive); in the experiment with HCT-116, 7.28 µM (inactive). The GI50 is 0.552 µM (active) with NCI-H522; 1.84 µM (inactive) in the experiment with SW-620; 3.03 µM (inactive) with CCRF-CEM; 15.1 µM (inactive) in the experiment with SK-MEL-5; 21.4 µM (inactive) with IGROV-1; 9.1 µM (inactive) with A498. In addition, the GI50 is 13.4 µM (inactive) with OVCAR-8; 17.6 µM (inactive) in the experiment on SF-295; 5.57 µM (inactive) in the experiment on M14; 14.2 µM (inactive) in the experiment with LOX IMVI; 2.57 µM (inactive) in the experiment on RXF 393.

For the molecule `O=C(CNC(=O)OCc1ccccc1)Oc1ccccc1`, the GI50 in the experiment on ACHN, in the experiment with SK-MEL-2, in the experiment with NCI-H226, with SN12C, in the experiment on SNB-75 and in the experiment on HCT-116 was > 100 µM (inactive) each time. For the same molecule, the GI50 in the experiment on NCI-H522, in the experiment with CCRF-CEM, in the experiment with SK-MEL-5, in the experiment with IGROV-1, with A498 and with OVCAR-8 was > 100 µM (inactive) throughout. For the same molecule, the GI50 in the experiment with SF-295, in the experiment with M14, with LOX IMVI and in the experiment on RXF 393 was > 100 µM (inactive) in each case.

On to `COc1cc2c(cc1O)[C@H](C)C(c1ccc(OC)c(OC)c1)O2` (some centres not stated), for which the GI50 with ACHN is 10.6 µM (inactive); in the experiment with SK-MEL-2 it was 3.1 µM (inactive); in the experiment with NCI-H226 it was 12.4 µM (inactive); in the experiment on CAKI-1, 3.67 µM (inactive); in the experiment on SNB-75, 1.95 µM (inactive); in the experiment with HCT-116, 3.6 µM (inactive). Further, the GI50 in the experiment on NCI-H522 is 9.23 µM (inactive); in the experiment with SW-620, 4.2 µM (inactive); with CCRF-CEM, 6.21 µM (inactive); with SK-MEL-5, 6.01 µM (inactive); with IGROV-1, 2.04 µM (inactive); in the experiment with A498, 22.6 µM (inactive). The GI50 with OVCAR-8 is 13.2 µM (inactive); with SF-295, 6.56 µM (inactive); in the experiment on M14, 4.68 µM (inactive); with LOX IMVI, 4.13 µM (inactive); in the experiment with RXF 393, 11.7 µM (inactive).
